Source: patent US7919525B2, “Radiation protection by gamma-tocotrienol” (priority 2003, dated 2011)

Assays:
Format in all cases: in vivo
[1] = tested on: CD2F1 male mice; experiment: 30-day survival of mice injected s.c. before lethal Cobalt-60 irradiation; conditions: for protective efficacy at higher radiation dose (in words): 11 Gy; for survival at 30 days after irradiation: s.c. injection 20-24 hours before irradiation
Experimental: CD2F1 male mice, 6-8 weeks old (approximately 25 g), procured from Jackson Labs were used throughout this study and were kept in rooms maintained at 21±0.5° C. Animals on arrival were maintained in quarantine for 10 days during which time serological testing was done for contamination by pathogens. All animals were provided with pellet diet and water ad lib.
A preparation of γ-tocotrienol in a final volume of 1 ml was made by mixing 0.11 ml of γ-tocotrienol with 0.85 ml PEG-400 (polyethylene glycol-400) and 0.05 ml of vital-E-placebo, a solubilizing agent (Schering-Plough). 1 ml of the preparation is sufficient for 8 mice. Final concentration of γ-tocotrienol is 100 mg/ml. Vehicle for injection into control animals was prepared exactly as for γ-tocotrienol except that 0.11 ml of olive oil was used instead of γ-tocotrienol.
(§1) Each animal was injected subcutaneously (at the nape of the neck) with 0.1 ml of either γ-tocotrienol or vehicle preparation. Injections were done 20-24 hours before irradiation.
(§2) Animals were placed in well-ventilated Lucite boxes (8 animals in a compartmentalized box) and irradiated in a Cobalt-60 facility at a radiation dose rate of 0.6 Gy/min for a total radiation dose of 10.5 and 11 Gy. The radiation dose used is a super lethal dose. The LD50/30 radiation dose for this strain of mice is 8.9 Gy with the vehicle alone. The radiation dose and dose rate were the same that had been used for α-tocopherol studies.
(§3) After radiation, mice were returned to their original cages with free access to food and water. Mice were weighed and monitored for survivors everyday for 30 days. Percentages of survivors at the end of 30 days are used as a measure of the efficacy of γ-tocotrienol in protecting from radiation damage.

[2] = tested on: CD2F1 male mice; experiment: Body weight of mice after irradiation at 10.5 Gy; conditions: 0.6 Gy per minute, s.c.
Experimental: as §1, §2, §3
Among the different treatment groups, the untreated mice (Untr, Irrad) and the mice treated with vehicle (Vehicle) started to loose weight again from around day 9 and died by day 15.

[3] = tested on: CD2F1 male mice; experiment: 30-day survival of mice given succinate ester orally before Cobalt-60 irradiation; conditions: 9.5 Gy Cobalt-60, 0.6 Gy/min; oral 0.1 ml of 200 unit/ml 20-24 hours before irradiation
Experimental: as §3
0.5 g TS (Sigma, 1210 units/g) was sonicated with 2.85 ml PEG-400 (polyethylene glycol-400) and 0.15 ml of vital-E-placebo, a solubilizing agent (Schering-Plough). The final concentration of TS in the prepared solution is 200 units/ml. At a dose of 800 unit/kg, 1 ml of the prepared solution as described above is sufficient for 8 mice. Vehicle for injection into control mice was prepared exactly as for TS except that 0.5 ml of olive oil was used instead of TS.
Each animal was orally administered 0.1 ml of TS solution (200 unit/ml) or vehicle by using feeding needles with a blobbed head. All administrations were done 20-24 hours before irradiation.
Animals were then placed in well-ventilated Lucite boxes (eight animals in a compartmentalized box) and irradiated in a Cobalt-60 facility at a radiation dose rate of 0.6 Gy/min for total radiation doses of 9, 9.5, and 10 Gy. The radiation doses 9.5 and 10 Gy used are lethal doses. […]
The efficacy of α-tocopherol succinate in protecting from radiation damage is monitored as described in Example 4. […]

[4] = experiment 1, 10.5 Gy Cobalt-60, 0.6 Gy/min, 8 mice
[5] = experiment 2, 10.5 Gy Cobalt-60, 0.6 Gy/min, 8 mice

Compound	protection higher than with α-tocopherol ([1]; 10.5 Gy, both experiments)	survival after irradiation, both experiments together ([1]; 10.5 Gy, given before irradiation)	protective efficacy at higher radiation dose (in words) [1]	survival at 30 days after irradiation ([1]; 11 Gy Cobalt-60, 0.6 Gy/min)	survival at 30 days after irradiation [1, 4]	survival at 30 days after irradiation [1, 5]	body weight course after irradiation (in words) [2]	protection less than that of γ-tocotrienol ([1]; 10.5 Gy)	survival at 30 days after irradiation [3]
γ-tocotrienol	25%	75%-100	better radioprotectant than α-tocopherol	40%	100%	75%	continued to gain weight and did not die from the irradiation	–	–
Cc1c(C)c2c(c(C)c1O)CC[C@@](C)(CCC[C@H](C)CCC[C@H](C)CCCC(C)C)O2 [α-tocopherol, reference compound]	–	–	not effective	no survivors	75%	50%	–	25%	–
Cc1c(C)c2c(c(C)c1OC(=O)CCC(=O)O)CC[C@@](C)(CCC[C@H](C)CCC[C@H](C)CCCC(C)C)O2 [α-tocopherol succinate]	–	–	–	–	–	–	–	–	60%
